Patent US8426345B2, “Method of drug design” (Alchemia Limited, priority 2005, dated 2013)

Molecular target: T1, Human SST5 somatostatin receptor (Homo sapiens, UniProt P35346)
T1 construct: expressed in transfected cells; host or cells: HEK-293 EBNA cells (membranes)
Assay: Filter plate radio-ligand binding assay for SST5 receptor ([125I]SST-14 displacement)
Details: 2P library; for % SST5 radio-ligand binding displaced at conc 50: compound conc 50 μM; for % SST5 radio-ligand binding displaced at conc 250: compound conc 250 μM; for % SST5 radio-ligand binding displaced at conc 500: compound conc 500 μM

T1 sequence (P35346 whole entry): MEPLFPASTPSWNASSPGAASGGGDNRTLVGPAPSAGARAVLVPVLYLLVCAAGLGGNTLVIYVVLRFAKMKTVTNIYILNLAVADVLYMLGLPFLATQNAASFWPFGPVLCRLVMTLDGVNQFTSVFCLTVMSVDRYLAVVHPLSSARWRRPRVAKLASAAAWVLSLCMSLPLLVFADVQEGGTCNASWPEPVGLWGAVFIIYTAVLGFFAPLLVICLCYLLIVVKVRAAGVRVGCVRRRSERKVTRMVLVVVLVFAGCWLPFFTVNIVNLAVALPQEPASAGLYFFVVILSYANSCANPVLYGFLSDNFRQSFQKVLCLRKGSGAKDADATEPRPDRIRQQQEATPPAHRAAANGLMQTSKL

SMILES	% SST5 radio-ligand binding displaced at conc 50	% SST5 radio-ligand binding displaced at conc 250	% SST5 radio-ligand binding displaced at conc 500
CO[C@H]1[C@H](O)[C@@H](COCc2ccc3ccccc3c2)O[C@@H](SC)[C@@H]1NC(=O)CN [Compound 8]	− (% SST5 radio-ligand binding displaced at cone (μM) −<40%)	+ (% SST5 radio-ligand binding displaced at cone (μM) 60>+>40%)	++ (% SST5 radio-ligand binding displaced at conc (μM) >60%)
COC[C@H]1O[C@@H](SC)[C@H](NC(=O)CN)[C@@H](OCc2ccc(Cl)cc2)[C@@H]1O [Compound 9]	− (% SST5 radio-ligand binding displaced at cone (μM) −<40%)	− (% SST5 radio-ligand binding displaced at cone (μM) −<40%)	− (% SST5 radio-ligand binding displaced at cone (μM) −<40%)
COC[C@H]1O[C@@H](SC)[C@H](NC(=O)CN)[C@@H](OCc2ccc3ccccc3c2)[C@@H]1O [Compound 10]	− (% SST5 radio-ligand binding displaced at cone (μM) −<40%)	− (% SST5 radio-ligand binding displaced at cone (μM) −<40%)	− (% SST5 radio-ligand binding displaced at cone (μM) −<40%)
COC[C@H]1O[C@H](OCc2ccc(Cl)cc2)[C@H](NC(=O)CN)[C@@H](OC)[C@@H]1O [Compound 11]	− (% SST5 radio-ligand binding displaced at cone (μM) −<40%)	− (% SST5 radio-ligand binding displaced at cone (μM) −<40%)	− (% SST5 radio-ligand binding displaced at cone (μM) −<40%)
COC[C@H]1O[C@H](OCc2ccc3ccccc3c2)[C@H](NC(=O)CN)[C@@H](OC)[C@@H]1O [Compound 12]	− (% SST5 radio-ligand binding displaced at cone (μM) −<40%)	− (% SST5 radio-ligand binding displaced at cone (μM) −<40%)	− (% SST5 radio-ligand binding displaced at cone (μM) −<40%)
COC[C@H]1O[C@@H](OCc2ccc(Cl)cc2)[C@H](NC(=O)CN)[C@@H](OC)[C@@H]1O [Compound 13]	− (% SST5 radio-ligand binding displaced at cone (μM) −<40%)	− (% SST5 radio-ligand binding displaced at cone (μM) −<40%)	− (% SST5 radio-ligand binding displaced at cone (μM) −<40%)
COC[C@H]1O[C@@H](OCc2ccc3ccccc3c2)[C@H](NC(=O)CN)[C@@H](OC)[C@@H]1O [Compound 14]	− (% SST5 radio-ligand binding displaced at cone (μM) −<40%)	− (% SST5 radio-ligand binding displaced at cone (μM) −<40%)	− (% SST5 radio-ligand binding displaced at cone (μM) −<40%)
CO[C@H]1[C@H](O)[C@@H](COCc2ccc(Cl)cc2)O[C@@H](SC)[C@@H]1NC(=O)CCN [Compound 15]	− (% SST5 radio-ligand binding displaced at cone (μM) −<40%)	− (% SST5 radio-ligand binding displaced at cone (μM) −<40%)	− (% SST5 radio-ligand binding displaced at cone (μM) −<40%)
CO[C@H]1[C@H](O)[C@@H](COCc2ccc3ccccc3c2)O[C@@H](SC)[C@@H]1NC(=O)CCN [Compound 16]	− (% SST5 radio-ligand binding displaced at cone (μM) −<40%)	− (% SST5 radio-ligand binding displaced at cone (μM) −<40%)	+ (% SST5 radio-ligand binding displaced at cone (μM) 60>+>40%)
COC[C@H]1O[C@@H](SC)[C@H](NC(=O)CCN)[C@@H](OCc2ccc(Cl)cc2)[C@@H]1O [Compound 17]	− (% SST5 radio-ligand binding displaced at cone (μM) −<40%)	− (% SST5 radio-ligand binding displaced at cone (μM) −<40%)	− (% SST5 radio-ligand binding displaced at cone (μM) −<40%)
COC[C@H]1O[C@@H](SC)[C@H](NC(=O)CCN)[C@@H](OCc2ccc3ccccc3c2)[C@@H]1O [Compound 18]	− (% SST5 radio-ligand binding displaced at cone (μM) −<40%)	− (% SST5 radio-ligand binding displaced at cone (μM) −<40%)	− (% SST5 radio-ligand binding displaced at cone (μM) −<40%)
COC[C@H]1O[C@H](OCc2ccc(Cl)cc2)[C@H](NC(=O)CCN)[C@@H](OC)[C@@H]1O [Compound 19]	− (% SST5 radio-ligand binding displaced at cone (μM) −<40%)	− (% SST5 radio-ligand binding displaced at cone (μM) −<40%)	++ (% SST5 radio-ligand binding displaced at conc (μM) >60%)
COC[C@H]1O[C@@H](OCc2ccc(Cl)cc2)[C@H](NC(=O)CCN)[C@@H](OC)[C@@H]1O [Compound 20]	− (% SST5 radio-ligand binding displaced at cone (μM) −<40%)	− (% SST5 radio-ligand binding displaced at cone (μM) −<40%)	+ (% SST5 radio-ligand binding displaced at cone (μM) 60>+>40%)
COC[C@H]1O[C@@H](OCc2ccc3ccccc3c2)[C@H](NC(=O)CCN)[C@@H](OC)[C@@H]1O [Compound 21]	− (% SST5 radio-ligand binding displaced at cone (μM) −<40%)	+ (% SST5 radio-ligand binding displaced at cone (μM) 60>+>40%)	++ (% SST5 radio-ligand binding displaced at conc (μM) >60%)
CO[C@H]1[C@H](O)[C@@H](COCc2ccc(Cl)cc2)O[C@@H](SC)[C@@H]1NC(=O)CCCN [Compound 22]	− (% SST5 radio-ligand binding displaced at cone (μM) −<40%)	− (% SST5 radio-ligand binding displaced at cone (μM) −<40%)	− (% SST5 radio-ligand binding displaced at cone (μM) −<40%)
CO[C@H]1[C@H](O)[C@@H](COCc2ccc3ccccc3c2)O[C@@H](SC)[C@@H]1NC(=O)CCCN [Compound 23]	− (% SST5 radio-ligand binding displaced at cone (μM) −<40%)	− (% SST5 radio-ligand binding displaced at cone (μM) −<40%)	+ (% SST5 radio-ligand binding displaced at cone (μM) 60>+>40%)
COC[C@H]1O[C@@H](SC)[C@H](NC(=O)CCCN)[C@@H](OCc2ccc(Cl)cc2)[C@@H]1O [Compound 24]	− (% SST5 radio-ligand binding displaced at cone (μM) −<40%)	− (% SST5 radio-ligand binding displaced at cone (μM) −<40%)	− (% SST5 radio-ligand binding displaced at cone (μM) −<40%)
COC[C@H]1O[C@@H](SC)[C@H](NC(=O)CCCN)[C@@H](OCc2ccc3ccccc3c2)[C@@H]1O [Compound 25]	− (% SST5 radio-ligand binding displaced at cone (μM) −<40%)	− (% SST5 radio-ligand binding displaced at cone (μM) −<40%)	+ (% SST5 radio-ligand binding displaced at cone (μM) 60>+>40%)
